Test results published in ChEMBL document CHEMBL1154789, “Novel cyclic-imide peptidomimetics as aminopeptidase N inhibitors. Design, chemistry and activity evaluation. Part I” (Eur J Med Chem, 2009).

What was measured:
[1] = tested on: HL-60; test: Cytotoxicity against human HL60 cells after 48 hrs by MTT assay; assay type: functional, cell-based; conditions: HL-60, 48 h
[2] = tested on: H22; test: Antimetastatic activity in mouse H22 cells xenografted in mouse assessed as reduction of metastasized nodes at 50 mg/kg, po administered 6 days per week for 2 weeks measured after 1 day last post dose; assay type: functional; set-up: scale not given: the % may be the effect or the level left
[3] = target: T1, Aminopeptidase N (Sus scrofa, UniProt P15145); test: Inhibition of pig kidney microsomes aminopeptidase N preincubated for 30 mins
T1 sequence (P15145 whole entry): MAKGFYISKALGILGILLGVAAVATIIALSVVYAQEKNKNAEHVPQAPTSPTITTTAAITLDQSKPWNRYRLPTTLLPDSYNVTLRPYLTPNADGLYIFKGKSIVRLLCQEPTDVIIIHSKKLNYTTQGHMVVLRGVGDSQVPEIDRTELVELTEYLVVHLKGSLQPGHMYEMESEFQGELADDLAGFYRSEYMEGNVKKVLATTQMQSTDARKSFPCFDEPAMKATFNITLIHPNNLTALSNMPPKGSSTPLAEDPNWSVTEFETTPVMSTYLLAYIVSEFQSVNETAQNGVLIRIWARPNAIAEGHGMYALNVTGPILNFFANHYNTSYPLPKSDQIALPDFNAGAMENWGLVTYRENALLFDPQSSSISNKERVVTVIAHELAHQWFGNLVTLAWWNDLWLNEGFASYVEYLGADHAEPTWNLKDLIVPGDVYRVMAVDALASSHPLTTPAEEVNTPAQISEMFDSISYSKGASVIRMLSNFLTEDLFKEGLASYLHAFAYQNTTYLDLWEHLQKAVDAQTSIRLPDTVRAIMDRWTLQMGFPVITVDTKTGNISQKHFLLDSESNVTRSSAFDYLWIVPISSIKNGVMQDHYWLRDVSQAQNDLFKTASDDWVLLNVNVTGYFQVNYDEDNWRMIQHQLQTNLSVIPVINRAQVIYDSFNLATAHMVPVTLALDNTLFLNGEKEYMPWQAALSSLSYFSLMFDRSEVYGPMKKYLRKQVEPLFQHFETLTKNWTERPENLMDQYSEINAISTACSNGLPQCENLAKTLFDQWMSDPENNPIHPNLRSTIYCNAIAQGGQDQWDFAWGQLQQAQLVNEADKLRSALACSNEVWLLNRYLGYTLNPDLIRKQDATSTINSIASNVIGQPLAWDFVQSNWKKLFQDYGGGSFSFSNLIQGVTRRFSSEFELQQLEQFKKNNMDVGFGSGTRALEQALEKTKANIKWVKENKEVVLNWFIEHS

Compound	IC50 [1] [µM]	Activity [2] [%]	IC50 [3] [µM]
COc1cc(C(=O)N[C@H]2CCC(=O)N(CC(=O)NO)C2=O)cc(OC)c1OC	136	81.56	
COC(=O)[C@H](CCCCNC(=O)OCc1ccccc1)NC(=O)CN1C(=O)CC[C@H](NC(=O)c2cc(OC)c(OC)c(OC)c2)C1=O			38.1
COC(=O)[C@H](CCCNC(=N)N[N+](=O)[O-])NC(=O)CN1C(=O)CC[C@H](NC(=O)c2cc(OC)c(OC)c(OC)c2)C1=O	86		42
O=C(CN1C(=O)CC[C@H](NC(=O)c2cc(O)c(O)c(O)c2)C1=O)N[C@@H](Cc1ccccc1)C(=O)O			10.3
COC(=O)[C@@H](CS)NC(=O)CN1C(=O)CC[C@H](NC(=O)c2cc(OC)c(OC)c(OC)c2)C1=O			50.3
O=C(CN1C(=O)CC[C@H](NC(=O)c2cc(O)c(O)c(O)c2)C1=O)NO			4.3
CC(C)C[C@H](NC(=O)CN1C(=O)CC[C@H](NC(=O)c2cc(O)c(O)c(O)c2)C1=O)C(=O)O			55.4
COC(=O)[C@@H](CCl)NC(=O)CN1C(=O)CC[C@H](NC(=O)c2cc(OC)c(OC)c(OC)c2)C1=O			50
O=C(O)CN1C(=O)CC[C@H](NC(=O)c2cc(O)c(O)c(O)c2)C1=O			47.3
O=C(O)CNC(=O)CN1C(=O)CC[C@H](NC(=O)c2cc(O)c(O)c(O)c2)C1=O			63.2
COC(=O)CC(NC(=O)CN1C(=O)CC[C@H](NC(=O)c2cc(OC)c(OC)c(OC)c2)C1=O)C(=O)OC (single isomer, unassigned)			21.7
CC(C)C[C@H](NC(=O)[C@@H](O)[C@H](N)Cc1ccccc1)C(=O)O [UBENIMEX]	245	60.25	
